Measurements: ChEMBL document CHEMBL1147945, “R-isomers of Arg-Gly-Asp (RGD) mimics as potent alphavbeta3 inhibitors” (Bioorg Med Chem, 2007)

Assays:
Integrin alpha-V/beta-6 [1] = target: T1, Integrin alpha-V/beta-6 (Homo sapiens, UniProt P06756+P18564); test: Inhibition of alpha-V-beta-6 integrin receptor in human HT29 cells; assay type: cell-based, HT-29
Integrin alpha-V/beta-3 = Integrin alpha-V/beta-3 (Homo sapiens, UniProt P05106+P06756); test: Inhibition of alphaVbeta3 integrin receptor expressed in human 293 cells; assay type: cell-based, HEK293
Integrin alpha-V/beta-6 [2] = target: T1, Integrin alpha-V/beta-6; test: Inhibition of alpha-V-beta-6 integrin receptor in human 293 cells; assay type: cell-based, HEK293
[3] = Half life in mouse at 20 mg/kg po or 10 mg/kg iv; assay type: ADME, organism-based; conditions: in vivo
[4] = Bioavailability in mouse at 20 mg/kg, po; assay type: ADME, organism-based; conditions: in vivo

T1 sequence (P06756 31-889 limits assumed): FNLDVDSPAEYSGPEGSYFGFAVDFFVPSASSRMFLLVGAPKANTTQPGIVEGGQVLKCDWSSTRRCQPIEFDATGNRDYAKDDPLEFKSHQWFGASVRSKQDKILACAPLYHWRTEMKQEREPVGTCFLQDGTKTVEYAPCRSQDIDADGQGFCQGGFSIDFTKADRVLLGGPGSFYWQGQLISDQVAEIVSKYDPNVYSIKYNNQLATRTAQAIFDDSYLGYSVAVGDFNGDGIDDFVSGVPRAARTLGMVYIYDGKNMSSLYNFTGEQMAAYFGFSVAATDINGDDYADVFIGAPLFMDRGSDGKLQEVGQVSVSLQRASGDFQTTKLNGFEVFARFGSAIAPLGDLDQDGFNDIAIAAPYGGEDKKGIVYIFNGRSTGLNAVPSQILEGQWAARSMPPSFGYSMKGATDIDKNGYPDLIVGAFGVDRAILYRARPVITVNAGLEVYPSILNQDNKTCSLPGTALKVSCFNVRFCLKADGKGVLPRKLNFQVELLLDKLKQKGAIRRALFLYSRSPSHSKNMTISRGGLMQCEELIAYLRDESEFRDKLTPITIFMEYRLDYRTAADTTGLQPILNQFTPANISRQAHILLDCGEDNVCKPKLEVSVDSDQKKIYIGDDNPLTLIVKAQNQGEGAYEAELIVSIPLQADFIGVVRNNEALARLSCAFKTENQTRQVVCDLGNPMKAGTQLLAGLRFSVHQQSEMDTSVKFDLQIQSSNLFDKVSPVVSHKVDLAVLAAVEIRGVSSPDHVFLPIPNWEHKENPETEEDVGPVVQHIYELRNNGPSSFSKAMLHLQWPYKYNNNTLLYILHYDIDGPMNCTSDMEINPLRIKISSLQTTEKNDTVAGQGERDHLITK
T1 sequence (P06756 891-1048 limits assumed): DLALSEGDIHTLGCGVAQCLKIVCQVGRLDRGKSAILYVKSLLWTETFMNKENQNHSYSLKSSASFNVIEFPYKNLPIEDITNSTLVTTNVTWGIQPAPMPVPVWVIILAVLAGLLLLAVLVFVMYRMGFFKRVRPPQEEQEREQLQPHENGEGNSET
T1 sequence (P18564 22-788 limits assumed): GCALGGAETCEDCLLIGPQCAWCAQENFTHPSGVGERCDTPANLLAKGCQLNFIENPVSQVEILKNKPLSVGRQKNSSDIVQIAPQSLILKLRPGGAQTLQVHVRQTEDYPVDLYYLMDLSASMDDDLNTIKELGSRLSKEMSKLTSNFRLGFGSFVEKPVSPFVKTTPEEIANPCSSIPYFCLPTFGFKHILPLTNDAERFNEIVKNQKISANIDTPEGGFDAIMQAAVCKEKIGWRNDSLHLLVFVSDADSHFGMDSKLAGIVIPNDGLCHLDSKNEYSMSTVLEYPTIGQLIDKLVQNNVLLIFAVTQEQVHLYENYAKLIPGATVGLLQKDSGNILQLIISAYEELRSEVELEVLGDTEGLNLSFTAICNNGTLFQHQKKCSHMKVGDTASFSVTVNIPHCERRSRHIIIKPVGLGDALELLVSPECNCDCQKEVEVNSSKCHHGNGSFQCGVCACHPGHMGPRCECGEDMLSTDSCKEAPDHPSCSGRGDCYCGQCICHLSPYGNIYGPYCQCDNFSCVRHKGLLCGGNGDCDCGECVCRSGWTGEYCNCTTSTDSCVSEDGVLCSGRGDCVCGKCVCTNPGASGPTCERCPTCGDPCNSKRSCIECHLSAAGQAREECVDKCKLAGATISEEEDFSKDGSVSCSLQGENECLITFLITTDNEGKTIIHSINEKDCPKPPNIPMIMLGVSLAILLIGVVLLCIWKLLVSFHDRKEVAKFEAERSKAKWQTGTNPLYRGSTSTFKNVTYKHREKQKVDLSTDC
Chain of Integrin alpha-V/beta-3 (P05106 27-788 limits assumed): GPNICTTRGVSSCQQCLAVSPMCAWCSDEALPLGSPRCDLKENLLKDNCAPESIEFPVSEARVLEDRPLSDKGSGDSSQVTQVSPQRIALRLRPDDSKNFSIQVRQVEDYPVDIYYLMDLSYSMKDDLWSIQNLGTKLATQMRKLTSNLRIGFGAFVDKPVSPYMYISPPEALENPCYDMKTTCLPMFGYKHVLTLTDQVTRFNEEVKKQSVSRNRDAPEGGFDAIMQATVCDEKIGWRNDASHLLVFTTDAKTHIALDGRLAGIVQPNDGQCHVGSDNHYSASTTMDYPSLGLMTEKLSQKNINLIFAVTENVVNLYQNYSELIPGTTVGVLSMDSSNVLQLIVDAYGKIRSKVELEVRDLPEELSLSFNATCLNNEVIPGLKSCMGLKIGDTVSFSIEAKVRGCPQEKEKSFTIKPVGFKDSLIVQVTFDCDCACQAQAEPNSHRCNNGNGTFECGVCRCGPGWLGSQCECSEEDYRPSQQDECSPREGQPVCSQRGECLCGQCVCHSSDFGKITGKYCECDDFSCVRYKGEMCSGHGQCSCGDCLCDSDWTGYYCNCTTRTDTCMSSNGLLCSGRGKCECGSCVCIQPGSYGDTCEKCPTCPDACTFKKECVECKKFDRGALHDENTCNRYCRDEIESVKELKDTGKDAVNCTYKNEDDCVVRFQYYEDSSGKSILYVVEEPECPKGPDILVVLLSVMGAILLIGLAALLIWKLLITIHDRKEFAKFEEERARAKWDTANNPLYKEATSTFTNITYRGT
Chain of Integrin alpha-V/beta-3 (P06756 31-889 limits assumed): as the sequence (P06756 31-889 limits assumed) above
Chain of Integrin alpha-V/beta-3 (P06756 891-1048 limits assumed): as the sequence (P06756 891-1048 limits assumed) above

Structure (SMILES)	IC50 (Integrin alpha-V/beta-6 [1]) [nM]	IC50 (Integrin alpha-V/beta-3) [nM]	IC50 (Integrin alpha-V/beta-6 [2]) [nM]	half-life [3] [h]	bioavailability [4] [%]
O=C(O)C[C@@H](NC(=O)CNC(=O)c1cccc(NC2=NCC(O)CN2)c1)c1cc(Br)cc(Br)c1O (some centres undefined)	25	10			
Cc1cc(C)c(O)c([C@H](CC(=O)O)NC(=O)CNC(=O)c2cc(O)cc(NC3=NCC(O)CN3)c2)c1 (some centres undefined)		1			
Cc1cc(C)c(O)c([C@@H](CC(=O)O)NC(=O)CNC(=O)c2cc(O)cc(NC3=NCC(O)CN3)c2)c1 (some centres undefined)	118	54			
O=C(O)C[C@@H](NC(=O)CNC(=O)c1cc(O)cc(NC2=NCCCN2)c1)c1cc(Br)cc(Cl)c1O	151	10			
O=C(O)C[C@@H](NC(=O)CNC(=O)c1cccc(NC2=NCC(O)CN2)c1)c1cc(Cl)cc(Br)c1O (some centres undefined)	3530	5			
O=C(O)C[C@@H](NC(=O)CNC(=O)c1cccc(NC2=NCCCN2)c1)c1cc(Cl)cc(Br)c1O	6540	5			
O=C(O)C[C@H](NC(=O)CNC(=O)c1cc(O)cc(N=C2NCC(O)CN2)c1)c1cc(Br)cc(Cl)c1O (some centres undefined)		2.7			
O=C(O)C[C@@H](NC(=O)CNC(=O)c1cccc(N=C2NCC(F)CN2)c1)c1cc(Cl)cc(Cl)c1O (some centres undefined)	16	1			
O=C(O)C[C@@H](NC(=O)CNC(=O)c1cc(O)cc(NC2=NCC(F)CN2)c1)c1cc(Cl)cc(Cl)c1O (some centres undefined)	42	1			
O=C(O)C[C@@H](NC(=O)CNC(=O)c1cc(O)cc(NC2=NCC(O)CN2)c1)c1cc(Br)cc(Cl)c1O (some centres undefined)	588	7			
O=C(O)C[C@H](NC(=O)CNC(=O)c1cncc(NC2=NCC(O)CN2)c1)c1cc(Br)cc(Cl)c1O (some centres undefined)		0.3			
O=C(O)C[C@@H](NC(=O)CNC(=O)c1cc(O)cc(NC2=NCC(O)CN2)c1)c1cc(Cl)cc(I)c1O (some centres undefined)	631	3			
O=C(O)C[C@H](NC(=O)CNC(=O)c1cc(O)cc(NC2=NCC(O)CN2)c1)c1cc(Cl)cc(I)c1O (some centres undefined)		6.4			
O=C(O)C[C@@H](NC(=O)CNC(=O)c1cc(O)cc(NC2=NCC(F)(F)CN2)c1)c1cc(Cl)cc(Br)c1O	7260	5			
Nc1cc(NC2=NCC(F)CN2)cc(C(=O)NCC(=O)N[C@H](CC(=O)O)c2cc(Cl)cc(Br)c2O)c1 (some centres undefined)	3440	3			
O=C(O)C[C@@H](NC(=O)CNC(=O)c1cc(O)cc(NC2=NCC(O)CN2)c1)c1cc(Cl)cc(Br)c1O (some centres undefined)		3	52		
O=C(O)C[C@@H](NC(=O)CNC(=O)c1cc(O)cc(NC2=NCC(F)CN2)c1)c1cc(Br)cc(Br)c1 (some centres undefined)	20	5			
O=C(O)C[C@H](NC(=O)CNC(=O)c1cccc(NC2=NCC(O)CN2)c1)c1cc(Cl)cc(Cl)c1O (some centres undefined)		0.3			
O=C(O)C[C@H](NC(=O)CNC(=O)c1cc(O)cc(N=C2NCC(F)CN2)c1)c1cc(Cl)cc(Br)c1O (some centres undefined)		0.6		5.1	13.6
O=C(O)C[C@@H](NC(=O)CNC(=O)c1cncc(NC2=NCC(O)CN2)c1)c1cc(Br)cc(Cl)c1O (some centres undefined)	22800	1			
Nc1cc(NC2=NCC(O)CN2)cc(C(=O)NCC(=O)N[C@H](CC(=O)O)c2cc(Cl)cc(Br)c2O)c1 (some centres undefined)	8620	22			
O=C(O)C[C@H](NC(=O)CNC(=O)c1cccc(N=C2NCC(O)CN2)c1)c1cc(Cl)cc(I)c1O (some centres undefined)		1.6			

Structure (SMILES)	IC50 (Integrin alpha-V/beta-6 [1]) [nM]	IC50 (Integrin alpha-V/beta-3) [nM]	IC50 (Integrin alpha-V/beta-6 [2]) [nM]	half-life [3] [h]	bioavailability [4] [%]
O=C(O)C[C@H](NC(=O)CNC(=O)c1cc(O)cc(NC2=NCCCN2)c1)c1cc(Cl)cc(Cl)c1O		0.9			
O=C(O)C[C@@H](NC(=O)CNC(=O)c1cc(O)cc(NC2=NCC(F)CN2)c1)c1cc(Cl)cc(Cl)c1 (some centres undefined)	40	11			
Cc1cc(Cl)cc([C@@H](CC(=O)O)NC(=O)CNC(=O)c2cc(O)cc(NC3=NCC(O)CN3)c2)c1O (some centres undefined)	688	18			
O=C(O)C[C@@H](NC(=O)CNC(=O)c1cc(O)cc(N=C2NCCCN2)c1)c1cc(Br)cc(Br)c1O	204	20			
O=C(O)C[C@H](NC(=O)CNC(=O)c1cccc(NC2=NCC(O)CN2)c1)c1cc(Cl)cc(Br)c1O (some centres undefined)		0.6			
O=C(O)C[C@@H](NC(=O)CNC(=O)c1cccc(NC2=NCC(O)CN2)c1)c1cc(Cl)cc(I)c1O (some centres undefined)	11500	1			
O=C(O)C[C@@H](NC(=O)CNC(=O)c1cccc(NC2=NCC(O)CN2)c1)c1cc(Cl)cc(Cl)c1O (some centres undefined)		0.7	20		
O=C(O)C[C@@H](NC(=O)CNC(=O)c1cccc(NC2=NCCCN2)c1)c1cc(Cl)cc(Cl)c1O	24	4			
O=C(O)C[C@@H](NC(=O)CNC(=O)c1cccc(NC2=NCC(O)CN2)c1)c1cc(Br)cc(Cl)c1O (some centres undefined)	48	8			
Cc1cc(C)cc([C@@H](CC(=O)O)NC(=O)CNC(=O)c2cc(O)cc(NC3=NCC(F)CN3)c2)c1 (some centres undefined)	49	56			
O=C(O)C[C@H](NC(=O)CNC(=O)c1cccc(NC2=NCC(F)CN2)c1)c1cc(Cl)cc(Br)c1O (some centres undefined)		0.2			
O=C(O)C[C@@H](NC(=O)CNC(=O)c1cc(O)cc(NC2=NCC(O)CN2)c1)c1cc(Cl)cc(Cl)c1O (some centres undefined)		3	64		
O=C(O)C[C@@H](NC(=O)CNC(=O)c1cccc(NC2=NCCCN2)c1)c1cc(Cl)cc(I)c1O	10000	7			
O=C(O)C[C@H](NC(=O)CNC(=O)c1cccc(NC2=NCCCN2)c1)c1cc(Cl)cc(Br)c1O		2			
Cc1cc(C)c(O)c([C@@H](CC(=O)O)NC(=O)CNC(=O)c2cc(N)cc(NC3=NCC(F)CN3)c2)c1 (some centres undefined)	65	10			
O=C(O)C[C@@H](NC(=O)CNC(=O)c1cc(O)cc(NC2=NCCCN2)c1)c1cc(Cl)cc(I)c1O		9	1780		
O=C(O)C[C@H](NC(=O)CNC(=O)c1cc(O)cc(NC2=NCCCN2)c1)c1cc(Cl)cc(Br)c1O		2			
O=C(O)C[C@@H](NC(=O)CNC(=O)c1cccc(NC2=NCCCN2)c1)c1cc(Br)cc(Br)c1O	3210	4			
O=C(O)C[C@@H](NC(=O)CNC(=O)c1cccc(NC2=NCC(F)CN2)c1)c1cc(Br)cc(Cl)c1O (some centres undefined)	25	2			
O=C(O)C[C@@H](NC(=O)CNC(=O)c1cncc(NC2=NCC(F)CN2)c1)c1cc(Cl)cc(Br)c1O (some centres undefined)	1830	0.7			
O=C(O)C[C@@H](NC(=O)CNC(=O)c1cncc(NC2=NCC(O)CN2)c1)c1cc(Br)cc(Br)c1O (some centres undefined)	1760	2			
O=C(O)C[C@@H](NC(=O)CNC(=O)c1cc(O)cc(NC2=NCCCN2)c1)c1cc(Cl)cc(Cl)c1O	3000	3			

Structure (SMILES)	IC50 (Integrin alpha-V/beta-6 [1]) [nM]	IC50 (Integrin alpha-V/beta-3) [nM]	IC50 (Integrin alpha-V/beta-6 [2]) [nM]	half-life [3] [h]	bioavailability [4] [%]
O=C(O)C[C@H](NC(=O)CNC(=O)c1cc(O)cc(NC2=NCC(O)CN2)c1)c1cc(Cl)cc(Br)c1O (some centres undefined)		2.6			
O=C(O)C[C@H](NC(=O)CNC(=O)c1cncc(NC2=NCC(F)CN2)c1)c1cc(Cl)cc(Br)c1O (some centres undefined)		0.4			
O=C(O)C[C@H](NC(=O)CNC(=O)c1cc(O)cc(N=C2NCC(F)(F)CN2)c1)c1cc(Cl)cc(Br)c1O		5			
O=C(O)C[C@@H](NC(=O)CNC(=O)c1cccc(N=C2NCC(F)CN2)c1)c1cc(Cl)cc(Br)c1O (some centres undefined)	1420	1			
Nc1cc(NC2=NCC(O)CN2)cc(C(=O)NCC(=O)N[C@H](CC(=O)O)c2cc(Br)cc(Br)c2O)c1 (some centres undefined)	2790	7			
O=C(O)C[C@@H](NC(=O)CNC(=O)c1cc(O)cc(NC2=NCC(F)CN2)c1)c1cc(Br)cc(Cl)c1O (some centres undefined)	71	3			
O=C(O)C[C@H](NC(=O)CNC(=O)c1cc(O)cc(N=C2NCC(O)CN2)c1)c1cc(Cl)cc(Cl)c1O (some centres undefined)		0.9			
O=C(O)C[C@@H](NC(=O)CNC(=O)c1cncc(NC2=NCC(O)CN2)c1)c1cc(Cl)cc(I)c1O (some centres undefined)		1	622		
O=C(O)C[C@@H](NC(=O)CNC(=O)c1cc(O)cc(NC2=NCC(F)CN2)c1)c1cc(Br)cc(I)c1 (some centres undefined)	11	13			
O=C(O)C[C@H](NC(=O)CNC(=O)c1cncc(N=C2NCC(O)CN2)c1)c1cc(Cl)cc(Br)c1O (some centres undefined)		0.4			
Nc1cc(NC2=NCC(O)CN2)cc(C(=O)NCC(=O)N[C@H](CC(=O)O)c2cc(Cl)cc(I)c2O)c1 (some centres undefined)	12300	0.3			
O=C(O)C[C@@H](NC(=O)CNC(=O)c1cncc(NC2=NCC(O)CN2)c1)c1cc(Cl)cc(Br)c1O (some centres undefined)		1	615		
O=C(O)C[C@@H](NC(=O)CNC(=O)c1cncc(NC2=NCC(F)CN2)c1)c1cc(Cl)cc(Cl)c1O (some centres undefined)	14	1			
O=C(O)C[C@@H](NC(=O)CNC(=O)c1cc(O)cc(NC2=NCC(F)CN2)c1)c1cc(Cl)cc(Br)c1 (some centres undefined)	57	5			
Cc1cc(Cl)cc([C@H](CC(=O)O)NC(=O)CNC(=O)c2cc(O)cc(NC3=NCC(O)CN3)c2)c1O (some centres undefined)		0.2			
O=C(O)C[C@@H](NC(=O)CNC(=O)c1cc(O)cc(NC2=NCCCN2)c1)c1cc(Cl)cc(Br)c1O	2740	10			
O=C(O)C[C@@H](NC(=O)CNC(=O)c1cccc(NC2=NCCCN2)c1)c1cc(Br)cc(Cl)c1O	88	8			
Nc1cc(NC2=NCC(O)CN2)cc(C(=O)NCC(=O)N[C@H](CC(=O)O)c2cc(Br)cc(Cl)c2O)c1 (some centres undefined)	216	33			
O=C(O)C[C@@H](NC(=O)CNC(=O)c1cc(O)cc(NC2=NCC(O)CN2)c1)c1cc(Br)cc(Br)c1O (some centres undefined)	96	21			
O=C(O)C[C@@H](NC(=O)CNC(=O)c1cc(O)cc(NC2=NCC(F)CN2)c1)c1cc(Cl)cc(I)c1O (some centres undefined)		3	164		
O=C(O)C[C@@H](NC(=O)CNC(=O)c1cc(O)cc(NC2=NCC(F)CN2)c1)c1cc(Br)cc(Br)c1O (some centres undefined)	3420	3			
